Results taken from patent US20070203247A1, “E[…] REGIMENS” (priority 2006, published 2007).
Where two headings read alike, the source gives them in different places.

Tested on: patient experiencing an allergic emergency (anaphylaxis)
Settings: no amelioration after approx. 5 minutes, same device, within about five minutes after second dose
Method: Administration of a first and second injectable dosage form comprising an epinephrine solution for the treatment of anaphylaxis
A patient weighing approximately 15 Kg experiencing an allergic emergency whereupon a caretaker initiates treatment at the onset of shortness of breath by administering to the patient an auto-injection of a first dose of an epinephrine solution comprising 0.1 mg of epinephrine intramuscularly.
A patient weighing approximately 25 Kg experiencing an allergic emergency initiates treatment at the onset of shortness of breath by self administering a manual injection of a first dose of an epinephrine solution comprising 0.125 mg of epinephrine intramuscularly.
A patient weighing approximately 90 Kg experiencing an allergic emergency initiates treatment at the onset of shortness of breath by self administering an auto-injection of a first dose of an epinephrine solution comprising 0.6 mg of epinephrine subcutaneously.
A patient weighing approximately 110 Kg experiencing an allergic emergency initiates treatment at the onset of shortness of breath by self administering an auto-injection of a first dose of an epinephrine solution comprising 0.75 mg of epinephrine intramuscularly.

SMILES: CNC[C@H](O)c1ccc(O)c(O)c1 [epinephrine]
- patient's symptoms of anaphylaxis after the second injectable dose (Example 1: patient approx. 15 Kg, first dose 0.1 mg auto-injection intramuscularly, second dose 0.15 mg manual intramuscularly): symptoms of anaphylaxis are relieved or are at an acceptable level for transporting the patient to a physician
- patient's symptoms of anaphylaxis after the second injectable dose (Example 2: patient approx. 25 Kg, first dose 0.125 mg manual intramuscularly, second dose 0.125 mg manual intramuscularly): symptoms of anaphylaxis are relieved or are at an acceptable level for transporting the patient to a physician
- patient's symptoms of anaphylaxis after the second injectable dose (Example 3: patient approx. 90 Kg, first dose 0.6 mg auto-injection subcutaneously, second dose 0.75 mg manual intramuscularly): symptoms of anaphylaxis are relieved or are at an acceptable level for transporting the patient to a physician
- patient's symptoms of anaphylaxis after the second injectable dose (Example 4: patient approx. 110 Kg, first dose 0.75 mg auto-injection intramuscularly, second dose 1.0 mg auto-injector intramuscularly): symptoms of anaphylaxis are relieved or are at an acceptable level for transporting the patient to a physician
